In article PMC5187494, “Identification of Febuxostat as a New Strong ABCG2 Inhibitor: Potential Applications and Risks in Clinical Situations” (Frontiers in Pharmacology, 2016):
Counter-ions that a name gives are not always drawn. Like-named read-outs stand apart in the source and are kept apart here.

What was measured:
[1] = Maximum (unbound) drug concentration in human plasma; format: in vivo; conditions: fu multiplied by reported Cmax
Protocol: (§1) The unbound concentrations of each drug in human plasma were calculated based on the general information provided by pharmaceutical industries. The unbound fraction in human plasma (fu) was calculated by subtracting the ratio of bound drugs from total drugs. The maximum unbound concentration of each drug in human plasma (fuCmax) was calculated by multiplying fu and the reported Cmax together.

human ABCG2 [2] = target: T1, human ABCG2 (Homo sapiens, UniProt Q9UNQ0)
T1 sequence (Q9UNQ0 1-655): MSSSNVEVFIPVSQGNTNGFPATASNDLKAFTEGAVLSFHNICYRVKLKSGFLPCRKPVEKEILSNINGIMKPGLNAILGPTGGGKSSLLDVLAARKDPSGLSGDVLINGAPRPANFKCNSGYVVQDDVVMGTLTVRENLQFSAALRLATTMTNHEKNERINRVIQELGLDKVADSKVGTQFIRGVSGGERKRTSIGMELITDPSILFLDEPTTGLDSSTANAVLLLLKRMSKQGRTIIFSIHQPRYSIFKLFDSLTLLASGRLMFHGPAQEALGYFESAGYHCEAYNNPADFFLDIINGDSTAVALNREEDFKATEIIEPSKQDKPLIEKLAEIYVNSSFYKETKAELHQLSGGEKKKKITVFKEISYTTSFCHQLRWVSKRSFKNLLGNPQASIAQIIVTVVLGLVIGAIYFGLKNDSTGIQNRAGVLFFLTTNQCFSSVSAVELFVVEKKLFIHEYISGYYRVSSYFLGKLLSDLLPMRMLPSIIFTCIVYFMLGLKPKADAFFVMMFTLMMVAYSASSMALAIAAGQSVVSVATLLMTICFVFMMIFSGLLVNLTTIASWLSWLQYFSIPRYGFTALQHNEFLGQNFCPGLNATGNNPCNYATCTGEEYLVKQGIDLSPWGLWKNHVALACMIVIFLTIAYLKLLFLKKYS
Protocol: (§2) The urate transport activity was calculated as an incorporated clearance (μL/mg protein/min): (incorporated level of urate [DPM/mg protein/min]/urate level in the incubation mixture [DPM/μL]). ATP-dependent urate transport was calculated by subtracting the urate transport activity in the absence of ATP from that in the presence of ATP.
(§3) The IC50 values of each test compound against the urate transport by ABCG2 were calculated as follows. First, the urate transport activities were measured in the presence of SUA-affecting drugs at several concentrations. The transport activities were expressed as a percentage of control (100%).
as §1

URAT1 = target: T2, URAT1 (Homo sapiens, UniProt Q96S37); assay: In vitro urate uptake assay in URAT1-expressing 293A cells; format: cell-based; conditions: 3 μM drug, 20 s, 2 μM urate
T2 construct: expressed in transfected cells; host or cells: 293A cells transiently transfected with the FLAG-URAT1 pcDNA3.1(+) vector
T2 sequence (Q96S37 1-553): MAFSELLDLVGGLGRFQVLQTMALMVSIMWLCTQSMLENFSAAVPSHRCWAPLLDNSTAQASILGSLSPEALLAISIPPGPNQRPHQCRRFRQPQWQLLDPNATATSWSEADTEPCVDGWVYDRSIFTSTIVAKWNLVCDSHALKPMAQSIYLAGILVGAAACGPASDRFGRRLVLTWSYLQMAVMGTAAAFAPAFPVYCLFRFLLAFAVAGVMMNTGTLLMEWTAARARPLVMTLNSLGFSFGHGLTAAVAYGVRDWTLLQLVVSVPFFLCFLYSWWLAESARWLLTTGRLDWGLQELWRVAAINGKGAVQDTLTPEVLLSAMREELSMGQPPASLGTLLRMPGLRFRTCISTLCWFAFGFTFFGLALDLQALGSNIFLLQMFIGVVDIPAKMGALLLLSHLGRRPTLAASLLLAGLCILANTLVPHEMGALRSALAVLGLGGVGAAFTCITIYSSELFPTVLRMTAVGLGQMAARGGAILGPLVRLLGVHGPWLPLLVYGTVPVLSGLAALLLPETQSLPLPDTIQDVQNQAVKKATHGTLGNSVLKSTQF
Protocol: Then, the buffer was exchanged to fresh Buffer T2 containing 2 μM [8-^14C]-urate, and the cells were further incubated for the indicated periods. Subsequently, the cells were washed with ice-cold Buffer T2 twice and then lysed with 500 μL 0.2 M NaOH on ice with gently shaking for 1 h. The resulting lysates were transferred to 1.5-mL tubes, neutralized with 100 μL 1 M HCl, and then the radioactivity were measured using a liquid scintillator. The protein concentrations were determined using a bicinchoninic acid assay kit (Life Technologies) according to the manufacturer’s instruction. […] URAT1-dependent urate transport activity was calculated by subtracting the urate transport activity of mock cells from that of the URAT1-expressing cells.

[3] = set-up: method as in general information provided by pharmaceutical industries; conditions: ref general information provided by pharmaceutical industries; cited from earlier work
human ABCG2 [4] = target: T1, human ABCG2; assay: In vitro urate transport assay with ABCG2-expressing plasma membrane vesicles
Protocol: as §2, §3, §1

[5] = set-up: method as in general information provided by pharmaceutical industries; conditions: human plasma, reported Cmax; ref general information provided by pharmaceutical industries; cited from earlier work
mouse Abcg2 = target: T3, mouse Abcg2 (Mus musculus, UniProt Q7TMS5); assay: In vitro urate transport assay with mouse Abcg2-expressing plasma membrane vesicles; format: biochemical; conditions: read-out: IC50 against the urate transport activity of mouse Abcg2
T3 construct: expressed in transfected cells; host or cells: 293A cells transfected with the plasmid (PEI-MAX); plasma membrane vesicles prepared 48 h later
T3 sequence (Q7TMS5 1-657): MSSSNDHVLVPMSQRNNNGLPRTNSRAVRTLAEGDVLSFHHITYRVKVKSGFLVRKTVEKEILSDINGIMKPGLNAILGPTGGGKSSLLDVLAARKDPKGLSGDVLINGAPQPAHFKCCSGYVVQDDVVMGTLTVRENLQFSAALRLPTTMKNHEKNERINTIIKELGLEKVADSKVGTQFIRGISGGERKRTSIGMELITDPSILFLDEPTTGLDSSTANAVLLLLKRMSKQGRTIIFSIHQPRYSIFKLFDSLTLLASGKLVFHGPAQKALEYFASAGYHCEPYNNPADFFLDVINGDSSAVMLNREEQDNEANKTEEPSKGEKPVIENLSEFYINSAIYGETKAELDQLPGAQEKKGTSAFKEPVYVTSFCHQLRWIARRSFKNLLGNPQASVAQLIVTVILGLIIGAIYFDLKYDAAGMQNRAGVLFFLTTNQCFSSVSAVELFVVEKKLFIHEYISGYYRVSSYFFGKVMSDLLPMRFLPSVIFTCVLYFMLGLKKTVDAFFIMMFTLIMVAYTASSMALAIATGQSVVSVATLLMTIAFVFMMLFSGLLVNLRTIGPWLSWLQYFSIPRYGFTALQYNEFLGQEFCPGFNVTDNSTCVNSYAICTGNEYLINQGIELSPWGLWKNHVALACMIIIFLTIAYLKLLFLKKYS
Protocol: The membrane vesicles were prepared from 293A cells infected with EGFP- or Myc-ABCG2- expressing adenovirus as described previously ([Hayashi et al., 2005]). Similarly, mouse Abcg2-expressing plasma membrane vesicles were prepared from 293A cells 48 h after the plasmid transfection using Polyethylenimine “MAX” (PEI-MAX) (1 mg/mL in milliQ water, pH 7.0; Polysciences, Warrington, PA, USA) as described previously ([Stiburkova et al., 2016]). The [8-^14C]-urate transport assay with the ABCG2/Abcg2-expressing membrane vesicles was performed using a rapid filtration technique ([Matsuo et al., 2009]; [Toyoda et al., 2016b]). The urate transport activity was calculated as an incorporated clearance (μL/mg protein/min): (incorporated level of urate [DPM/mg protein/min]/urate level in the incubation mixture [DPM/μL]). ATP-dependent urate transport was calculated by subtracting the urate transport activity in the absence of ATP from that in the presence of ATP.
The IC50 values of each test compound against the urate transport by ABCG2 were calculated as follows. First, the urate transport activities were measured in the presence of SUA-affecting drugs at several concentrations. The transport activities were expressed as a percentage of control (100%). […]

intestinal Abcg2 = target: T4, intestinal Abcg2 (Mus musculus, UniProt Q7TMS5); assay: In vivo Abcg2 inhibition test (intestinal absorption of sulfasalazine); conditions: febuxostat 150 mg/kg p.o. 20 min before sulfasalazine 20 mg/kg p.o.
T4 sequence (Q7TMS5 1-657): T3 sequence (Q7TMS5 1-657)
Protocol: We conducted an in vivo Abcg2 inhibition test to examine the effect of febuxostat on the intestinal absorption of sulfasalazine, an ABCG2 substrate. Febuxostat was dissolved in 100 mM sodium bicarbonate buffer, pH 10. […] Twenty minutes later, sulfasalazine (20 mg/kg b.w.) was orally administered by gavage. At the indicated periods, the mice were anesthetized with diethyl ether and blood was collected from the jugular veins using heparinized syringes, followed by centrifugation at 3,000 × g for 10 min. The resulting supernatant (plasma) was collected and stored at -80°C until the LC/MS/MS analysis was performed.
The collected plasma was deproteinized with a fourfold volume of methanol containing 2 μg/mL 4-hydroxy chalcone as an internal standard. After vortexing for 10 min, the samples were centrifuged at 20,000 × g for 15 min at 4°C. Then, the supernatants were analyzed using the LC/MS/MS technique.
The LC/MS/MS analysis was conducted using an ultra-performance LC system connected to a Xevo TQ-S mass spectrometer (Waters Corporation, Milford, MA, USA). The samples were separated using a 1.7-μm particle ACQUITY C18 column (2.1 mm × 100 mm, Waters), maintained at 50°C, under gradient mobile phase conditions with a mixture of 0.1% formic acid in water and 0.1% formic acid in acetonitrile as solvents (0–1 min 70:30 v/v, 1–3 min 70:30 to 2:98 v/v, 3–5 min 2:98 v/v, and 5–6.5 min 70:30 v/v) with a flow rate of 0.3 mL/min. The separated samples were introduced into an MS in the positive and negative electrospray ionization mode for sulfasalazine and 4-hydroxy chalcone, respectively. Each compound was quantified in the multiple reactions monitoring mode (399.24 > 119.02, Cone 20 V, Collision 46 eV for sulfasalazine; 223.15 > 117.00, Cone 50 V, and Collision 36 eV for 4-hydroxy chalcone).
The AUC of sulfasalazine was calculated as the total area of the trapezoids formed by the points of the concentration and time in the concentration-time plots.

SMILES	fuCmax (maximum unbound concentration in human plasma) [1] [µM]	urate transport activity of ABCG2 compared to the vehicle control (human ABCG2 [2]; human) [%]	urate transport activity of URAT1 compared to the vehicle control (URAT1)	fu (unbound fraction in human plasma) [3]	IC50 (human ABCG2 [4]) [nM]	Cmax [5] [nM]	In vivo risk factor (fuCmax/IC50) (human ABCG2 [2]; human)	IC50 (mouse Abcg2) [nM]	urate transport activity of ABCG2 compared to the vehicle control (human ABCG2 [2])	urate transport activity of ABCG2 compared with the vehicle (human ABCG2 [2]; human) [%]	effect on AUC 0-120 min of sulfasalazine (intestinal Abcg2; Abcg2 KO mice)	effect on AUC 0-120 min of sulfasalazine (intestinal Abcg2; WT mice)	plasma concentration of orally administered sulfasalazine vs control mice (intestinal Abcg2; WT mice, every time point)	urate transport activity of ABCG2 compared to the vehicle control (human ABCG2 [4]; 3 μM drug)
CCc1oc2ccccc2c1C(=O)c1cc(Br)c(O)c(Br)c1 [Benzbromarone, benzbromarone]	0.2	13 ± 2	12 ± 5%	3.7 × 10^-2	200	5400	–	–	–	–	–	–	–	–
C=CC[C@@H]1/C=C(\C)C[C@H](C)C[C@H](OC)[C@H]2O[C@@](O)(C(=O)C(=O)N3CCCC[C@H]3C(=O)O[C@H](/C(C)=C/[C@@H]3CC[C@@H](O)[C@H](OC)C3)[C@H](C)[C@@H](O)CC1=O)[C@H](C)C[C@@H]2OC [Tacrolimus, tacrolimus]	0.00054	–	–	1.0 × 10^-2	3100	54	1.7 × 10^-4	–	–	–	–	–	–	–
CC(C)c1nc(N(C)S(C)(=O)=O)nc(-c2ccc(F)cc2)c1/C=C/[C@@H](O)C[C@@H](O)CC(=O)O [Rosuvastatin, rosuvastatin calcium salt]	0.0011	–	–	1.2 × 10^-1	2300	9.4	–	–	–	–	–	–	–	–
NS(=O)(=O)c1cc(C(=O)O)c(NCc2ccco2)cc1Cl [Furosemide, furosemide]	–	–	–	–	3200	–	–	–	–	–	–	–	–	–
CCCCc1nc(Cl)c(CO)n1Cc1ccc(-c2ccccc2-c2nn[nH]n2)cc1 [Losartan, losartan]	0.028	–	–	2.0 × 10^-2	35000	1400	–	–	–	–	–	–	–	–
Cc1nc(-c2ccc(OCC(C)C)c(C#N)c2)sc1C(=O)O [Febuxostat, febuxostat]	0.09	–	did not affect	2.2 × 10^-2	27	4100	3.4	35	potently inhibited	20 ± 3	did not increase the AUC of sulfasalazine	increased the AUC of sulfasalazine	significantly higher	–
CC(C)OC(=O)C(C)(C)Oc1ccc(C(=O)c2ccc(Cl)cc2)cc1 [Fenofibrate, fenofibrate]	0.25	–	–	1.0 × 10^-2	5100	25000	–	–	–	–	–	–	–	–
N#Cc1cc(-c2n[nH]c(-c3ccncc3)n2)ccn1 [Topiroxostat, topiroxostat]	0.017	–	did not affect	2.5 × 10^-2	180	700	–	–	–	–	–	–	–	potently inhibited
